Test results: paper PMC6148246, “HS-1371, a novel kinase inhibitor of RIP3-mediated necroptosis” (Experimental & Molecular Medicine, 2018)

Key:
RIP3 [1] = target: T1, RIP3 (Homo sapiens, UniProt Q9Y572); assay: Basal S227 auto-phosphorylation of RIP3 in HT-29 cells (immunoblot); format: cell-based; parameters: RIP3-expressing HT-29 cells; endogenous in cells; host or cells: HT-29; conditions: 10 μM, 9 h
Experimental: (§1) Cells were rinsed in cold phosphate-buffered saline (PBS) and lysed in M2 buffer containing 20 mM Tris at pH 7, 0.5% NP-40, 250 mM NaCl, 3 mM EDTA, 3 mM EGTA, 2 mM DTT, 0.5 mM PMSF, 20 mM β-glycerol phosphate, 1 mM sodium vanadate, and 1 μg/mL leupeptin. The cell extracts were subjected to western blot analysis. For immunoprecipitation, lysates were mixed and precipitated with antibody and protein A-agarose beads overnight or for 4 h at 4 °C. Bound proteins were removed by boiling in SDS and resolved by SDS-PAGE, and immunoblotting was visualized by enhanced chemiluminescence (ECL, Amersham).
RIP3 kinase activity is essential for TNF-induced necroptosis, and human S227 auto-phosphorylation sites of RIP3 are required for the interaction of RIP3 with its substrate MLKL[13],[14], which is indispensable for downstream necroptotic cell death signaling. To test the possible effects of the RIP3 inhibitors on necroptosis, HT-29 cells were treated with the kinase inhibitors, and RIP3 kinase activity was determined by examining its phosphorylation status.
(§2) Fig. 2 Novel inhibitors can block RIP3 S227 phosphorylation. a Western blotting showing various kinase inhibitor effects on RIP3 S227 auto-phosphorylation. HT-29 cells were treated with four tested kinase inhibitors (1308, 1336, 1338, and 1371, 10 μM) for 9 h. As a control, KK5101 (Trk alpha inhibitor) and HS829 (IKK beta inhibitor) were also treated at a concentration of 10 μM for 9 h. Prototypical necroptosis stimuli (TNF + zVAD + either cycloheximide or SMAC mimetic; hereafter referred to as TCZ or TSZ) were applied for 6 h. […] HT-29 cells were treated with 4 tested kinase inhibitors for 24 h, and cell viability was analyzed by MTT assay or phase-contrast microscopy. […] HT-29 cells were pretreated with necrostatin-1 (Nec-1, 40 μM), dabrafenib (DAB, 10 μM) or necrosulfonamide (NSA, 1 μM) for 2 h and then treated with TSZ for 6 h. […] HT-29 cells were pretreated with four tested kinase inhibitors for 2 h and then treated with TSZ for 6 h. Cell lysates were analyzed by immunoblotting. f HT-29 cells were pretreated with Nec-1 (40 μM), DAB (5 μM) or HS-1371 (5 μM) for 2 h and then treated with TSZ for 4 h. Cell lysates were immunoprecipitated with anti-RIP3 antibody. Immunoprecipitates and total lysates were analyzed by Western blotting

RIP3 [2] = target: T1, RIP3; assay: S227 auto-phosphorylation of overexpressed RIP3 in 293T cells (immunoblot); format: cell-based; conditions: 293T cells transfected with Flag-hRIP3
Description: TNFα Smac mimetic and the caspase inhibitor zVAD (hereafter referred to as TSZ) is a classical combination that is used to induce RIP3-mediated necroptotic cell death[10],[32]. We first verified that three established pharmacological inhibitors of necroptosis, necrostatin-1 (Nec-1), necrosulfonamide (NSA), and dabrafenib (DAB) could block TNF-induced necroptosis (Fig. 2d). Of these inhibitors, Nec-1 inhibits RIP1 kinase activity[33],[34], DAB inhibits RIP3 kinase activity, and NSA inhibits MLKL functions downstream of RIP3 phosphorylation. […] Next, we tested whether these four inhibitors would inhibit TNF-induced necroptosis signaling by blocking RIP3 kinase activity. […] The effect of HS-1371 on RIP3 kinase activity was compared with another RIP3 inhibitor, GSK’872[16]. […]
(a) Overexpression of RIP3 could induce S227 phosphorylation without stimuli. […] After cells were harvested, cell lysates were analyzed by […]
kinase inhibitor. HT-29 cells were treated with HS -1371 or GSK’872 indicated concentrations for 9 h, and cell lysates were analyzed by immunoblotting.
(c) Cytotoxicity of HS-1371 was compared with GSK’872. HT-29 cells were treated with 2 kinase inhibitors for 24 h and cell viability was analyzed by MTT assay.
(d) Inhibition of MLKL phosphorylation by HS-1371 was compared with other two RIP3 kinases inhibitors, DAB (5 μM) and GSK’872 (5 μM). […] Cell lysates were analyzed by […]

p-MLKL = assay: Phospho-MLKL immunofluorescence in HT-29 cells; format: cell-based, human; conditions: HT-29, immunofluorescence
Experimental: HT-29 cells were fixed in 4% paraformaldehyde for 10 min. To stain phospho-MLKL, cells were permeabilized with 0.25% Triton X-100 for 10 min. After incubation in a blocking buffer (10% fetal bovine serum in DPBS) for 30 min, the primary antibody to phospho-MLKL was incubated overnight at 4 °C, and FITC-conjugated secondary antibody (goat anti-rabbit IgG, 1:250, dilution, Invitrogen) was incubated for 1 h at room temperature. A mounting medium containing DAPI (VECTASHIELD, Cat No. 94010, Vector Laboratories) was used for counterstaining. Representative images were taken by confocal microscope.
HT-29 cells were pretreated with four tested inhibitors for 2 h and then treated with TSZ (6 h for immunoblotting, 24 h for cell death assay). Cell lysates were analyzed by immunoblotting, and cell viability was analyzed by MTT assay or phase-contrast microscopy. The results are presented as the means ± SEM. *P < 0.05, **P < 0.01, ***P < 0.001. b Protection of necroptosis by HS-1371 treatment is similar with dabrafenib, which abolished downstream events. HT-29 cells were pretreated with various necroptosis inhibitors and HS-1371 before TSZ treatment. Cell lysates were analyzed by immunoblotting, and cell viability was analyzed by MTT assay (left panel). Cells were stained with phospho-MLKL antibody and analyzed by confocal fluorescence microscopy (middle panel), and cell death was further analyzed by FACS analysis after PI staining (right panel). c HS-1371 protects cells from TNF-induced necroptosis in a dose-dependent manner. HT-29 cells were pretreated with indicated concentrations of HS-1371 and then treated with TSZ (6 h for immunoblotting, 24 h for cell death assay). Cell lysates were analyzed by immunoblotting, and cell viability was analyzed by MTT assay or phase-contrast microscopy. The results are presented as means ± SEM. *P < 0.05, **P < 0.01, ***P < 0.001 TEXT PRINTED IN THE PICTURE: (b) TSZ: 20.7 | (b) TSZ + Nec-1: 5.8 | (b) TSZ + DAB: 5.5 | (b) TSZ + 1371: 6.8 DOUBTS OF THE COPYIST ABOUT THIS PICTURE: Panel b, flow cytometry plots: the red gate numbers are printed without a measure or unit, so none is given / Panel b: the 'Untreated' control plot prints 7.7; left out because it is not a substance

RIP3 [3] = target: T1, RIP3; assay: TNF (TSZ)-induced RIP3 and MLKL phosphorylation in HT-29 cells (immunoblot); format: cell-based; parameters: RIP3-expressing HT-29 cells; endogenous in cells; host or cells: HT-29; conditions: HT-29; Nec-1 40 μM, DAB 10 μM, NSA 1 μM pretreated 2 h, TSZ 6 h
Experimental: as §1, §2
TNFα Smac mimetic and the caspase inhibitor zVAD (hereafter referred to as TSZ) is a classical combination that is used to induce RIP3-mediated necroptotic cell death[10],[32]. We first verified that three established pharmacological inhibitors of necroptosis, necrostatin-1 (Nec-1), necrosulfonamide (NSA), and dabrafenib (DAB) could block TNF-induced necroptosis (Fig. 2d). Of these inhibitors, Nec-1 inhibits RIP1 kinase activity[33],[34], DAB inhibits RIP3 kinase activity, and NSA inhibits MLKL functions downstream of RIP3 phosphorylation. […] Next, we tested whether these four inhibitors would inhibit TNF-induced necroptosis signaling by blocking RIP3 kinase activity. […] The effect of HS-1371 on RIP3 kinase activity was compared with another RIP3 inhibitor, GSK’872[16].

T1 sequence (Q9Y572 whole entry): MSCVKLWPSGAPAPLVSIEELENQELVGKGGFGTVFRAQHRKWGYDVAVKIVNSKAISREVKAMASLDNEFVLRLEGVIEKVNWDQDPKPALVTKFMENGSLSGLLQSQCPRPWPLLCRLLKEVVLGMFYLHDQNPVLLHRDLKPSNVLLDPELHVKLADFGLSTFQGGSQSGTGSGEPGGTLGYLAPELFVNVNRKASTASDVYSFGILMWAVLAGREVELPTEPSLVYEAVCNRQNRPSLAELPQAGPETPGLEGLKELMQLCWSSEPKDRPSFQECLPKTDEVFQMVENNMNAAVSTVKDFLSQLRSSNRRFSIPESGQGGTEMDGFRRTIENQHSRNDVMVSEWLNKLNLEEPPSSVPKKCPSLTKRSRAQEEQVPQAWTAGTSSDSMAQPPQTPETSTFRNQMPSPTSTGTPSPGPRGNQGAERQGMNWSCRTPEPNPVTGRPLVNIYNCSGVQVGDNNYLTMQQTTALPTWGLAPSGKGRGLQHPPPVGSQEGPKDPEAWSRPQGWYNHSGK

Compound: Fc1ccccc1Nc1ccnc2cc(-c3cnn(C4CCNCC4)c3)ccc12 [HS-1308]
- effect on S227 auto-phosphorylation of RIP3 at the basal level (RIP3 [1]): inhibitory effect

Compound: Fc1ccc(Oc2ccnc3cc(-c4cnn(C5CCNCC5)c4)ccc23)c(F)c1 [HS-1336]
- effect on S227 auto-phosphorylation of RIP3 at the basal level (RIP3 [1]): inhibitory effect

Compound: Fc1cccc(Oc2ccnc3cc(-c4cnn(C5CCNCC5)c4)ccc23)c1 [HS-1338]
- effect on S227 auto-phosphorylation of RIP3 at the basal level (RIP3 [1]): inhibitory effect

Compound: CC(C)(C)c1nc(-c2cccc(NS(=O)(=O)c3c(F)cccc3F)c2F)c(-c2ccnc(N)n2)s1 [dabrafenib]
- S227 auto-phosphorylation of overexpressed RIP3 (RIP3 [2]): inhibited
- p-MLKL detection / translocation after TSZ (p-MLKL): no detection of p-MLKL
- block of TNF-induced necroptosis (RIP3 phosphorylation) (RIP3 [3]): could block

Compound: CN1C(=O)C(Cc2c[nH]c3ccccc23)NC1=S (stereo not shown) [necrostatin-1, reference compound]
- p-MLKL detection / translocation after TSZ (p-MLKL): no detection of p-MLKL
- block of TNF-induced necroptosis (RIP3 phosphorylation) (RIP3 [3]): could block

Compound: COc1nccnc1NS(=O)(=O)c1ccc(NC(=O)/C=C/c2ccc([N+](=O)[O-])s2)cc1 [necrosulfonamide, reference compound]
- p-MLKL detection / translocation after TSZ (p-MLKL): could not translocate into the plasma membrane
- block of TNF-induced necroptosis (RIP3 phosphorylation) (RIP3 [3]): could block
